Laboratory results reported in patent US20260098061A1, “EPHA2-BINDING PENDING PEPTIDE AND COMPOSITION COMPRISING SAME” (PeptiDream Inc., priority 2022, published 2026).
Numbered stars: 1 amine (or outer) side, 2 acyl side, 3 side chain; on linkers, the order of the positions; unused ones are H or OH. Bridge positions count the residues as written; N and C are the ends. Square brackets hold non-standard residues; d marks the D form. Side chains are listed from the residue outwards. Peptide text beside a SMILES is read from it. * marks the point of attachment. Piperazinyl(4-CH2COOH) = O=C(O)CN1CCN(*)CC1; Trp(1-Me) = Cn1cc(C[C@H](N)C(=O)O)c2ccccc21; NMe3Pal = CN[C@@H](Cc1cccnc1)C(=O)O; NMeF = CN[C@@H](Cc1ccccc1)C(=O)O; 4Pal = N[C@@H](Cc1ccncc1)C(=O)O; Gly(cBu) = N[C@H](C(=O)O)C1CCC1; Aad = N[C@@H](CCCC(=O)O)C(=O)O; CO = O=C([*:1])[*:2]; βAla = NCCC(=O)O

These compounds were tested against T1, Recombinant Human EphA2 Fc Protein (Homo sapiens, UniProt P29317) (assay: SPR interaction analysis (Biacore T200), kinetics of peptides against EphA2). Conditions: Recombinant Human EphA2 Fc Protein captured by Human Antibody Capture kit; single-cycle kinetics; 25° C.; HBS-P+ buffer with 1% DMSO.
T1 construct: purchased Elabscience
Format: binding
Outline: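 On a Biacore T200 at 25° C, Fc-tagged human EphA2 was captured via anti-human antibody; peptides ran as five serial dilutions in HBS-P+ pH 7.4 with 1% DMSO by single-cycle kinetics. Baseline-subtracted data fitted for ka and kd, from which KD was derived.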

| SMILES | Kd [nM] |
| --- | --- |
| CC(C)C[C@@H]1NC(=O)[C@H](Cc2ccncc2)NC(=O)[C@H](Cc2ccccc2)NC(=O)CSC[C@@H](C(=O)NCC(N)=O)NC(=O)[C@H](Cc2cn(C)c3ccccc23)NC(=O)[C@H](Cc2ccccc2)N(C)C(=O)[C@H](Cc2cn(C)c3ccccc23)NC(=O)CNC1=O [PDC_EphA2-00020295-L092, F-4Py-L-G-W1Me-MeF-W1Me-C-G-NH2] ({CH2CO}-F[4Pal]LG[Trp(1-Me)][NMeF][Trp(1-Me)]CG-NH2; thioether N-8) | 100 to 400 |
| CC(=O)NCCCC[C@@H](NC(=O)CCNC(=O)[C@@H]1CSCC(=O)N[C@H](C)C(=O)N(C)[C@@H](Cc2ccccc2)C(=O)N[C@@H](CC(N)=O)C(=O)N[C@@H](CC(C)C)C(=O)N[C@@H](CCCC(=O)O)C(=O)N(C)[C@@H](Cc2ccccc2)C(=O)N[C@@H](Cc2cn(C)c3ccccc23)C(=O)N[C@@H](C(C)C)C(=O)N[C@@H](Cc2cn(C)c3ccccc23)C(=O)N[C@@H]([C@@H](C)O)C(=O)N[C@@H](CCC(=O)O)C(=O)N1)C(N)=O [PDC_EphA2-00008082, da-MeF-N-L-Hgl-MeF-W1Me-V-W1Me-T-E-C-bA-dkAc-NH2] ({CH2CO}-[dA][NMeF]NL[Aad][NMeF][Trp(1-Me)]V[Trp(1-Me)]TEC[βAla][dK](Ac)-NH2; thioether N-12) | < 1 |
| CC(C)[C@@H]1NC(=O)[C@H](Cc2cn(C)c3ccccc23)NC(=O)[C@H](Cc2cccnc2)N(C)C(=O)[C@H](CCCC(N)=O)NC(=O)[C@H](C2CCC2)NC(=O)[C@H](CC(N)=O)NC(=O)[C@H](Cc2cccnc2)N(C)C(=O)[C@@H](C)NC(=O)CSC[C@@H](C(N)=O)NC(=O)[C@H](CCCC(N)=O)NC(=O)[C@H]([C@@H](C)O)NC(=O)[C@H](Cc2cn(C)c3ccccc23)NC1=O [PDC_EphA2-00010012, da-Me3Py-N-Cbg-Hgn-Me3Py-W1Me-V-W1Me-T-Hgn-C-NH2] ({CH2CO}-[dA][NMe3Pal]N[Gly(cBu)][Aad](NH2)[NMe3Pal][Trp(1-Me)]V[Trp(1-Me)]T[Aad](NH2)C-NH2; thioether N-12) | < 1 |

Second part, the compound after the results:

| Kd [nM] | SMILES |
| --- | --- |
| < 1 | CC(=O)NCCCC[C@H](NC(=O)[C@@H]1CSCC(=O)N[C@H](C)C(=O)N(C)[C@@H](Cc2cccnc2)C(=O)N[C@@H](CC(N)=O)C(=O)N[C@@H](CC(C)C)C(=O)N[C@@H](CCCCNC(=O)N2CCN(CC(=O)O)CC2)C(=O)N(C)[C@@H](Cc2ccccc2)C(=O)N[C@@H](Cc2cn(C)c3ccccc23)C(=O)N[C@@H](CCCCNC(=O)N2CCN(CC(=O)O)CC2)C(=O)N[C@@H](Cc2cn(C)c3ccccc23)C(=O)N[C@@H]([C@@H](C)O)C(=O)N[C@@H](CCC(=O)O)C(=O)N1)C(N)=O [PDC_EphA2-00008089, da-Me3Py-N-L-KCOpipzaa-MeF-W1Me-KCOpipzaa-W1Me-T-E-C-KAc-NH2] ({CH2CO}-[dA][NMe3Pal]NLK([CO-Piperazinyl(4-CH2COOH)])[NMeF][Trp(1-Me)]K([CO-Piperazinyl(4-CH2COOH)])[Trp(1-Me)]TECK(Ac)-NH2; thioether N-12) |
| < 1 | CC(=O)NCCCC[C@@H](NC(=O)CCNC(=O)[C@@H]1CSCC(=O)N[C@H](C)C(=O)N(C)[C@@H](Cc2cccnc2)C(=O)N[C@@H](CC(N)=O)C(=O)N[C@@H](CC(C)C)C(=O)N[C@@H](CCCC(=O)O)C(=O)N(C)[C@@H](Cc2ccccc2)C(=O)N[C@@H](Cc2cn(C)c3ccccc23)C(=O)N[C@@H](CCCCNC(=O)N2CCN(CC(=O)O)CC2)C(=O)N[C@@H](Cc2cn(C)c3ccccc23)C(=O)N[C@@H]([C@@H](C)O)C(=O)N[C@@H](CCC(=O)O)C(=O)N1)C(N)=O [PDC_EphA2-00008087, da-Me3Py-N-L-Hgl-MeF-W1Me-KCOpipzaa-W1Me-T-E-C-bA-dkAc-NH2] ({CH2CO}-[dA][NMe3Pal]NL[Aad][NMeF][Trp(1-Me)]K([CO-Piperazinyl(4-CH2COOH)])[Trp(1-Me)]TEC[βAla][dK](Ac)-NH2; thioether N-12) |
